# Where a SMILES comes first, the peptide text is derived from it. Bridges are numbered along the chain shown (N, C = ends). [ ]: non-standard residue; d: D form. Hyp = O=C(O)[C@@H]1C[C@@H](O)CN1; NMeNle = CCCC[C@H](NC)C(=O)O; NMeA = CN[C@@H](C)C(=O)O
# Target: T1, Human PD-L1/PD-1 (Homo sapiens, UniProt Q9NZQ7)
# T1 construct: TVMV protease cleavage site (C); made in house; host or cells: HEK293T cells
# Assay: HTRF Human PD-L1/PD-1 binding assay (PD-1-Ig/PD-L1-His)
# Details: PD-L1-His 10 nM, PD-1-Ig 20 nM; class symbol; read-out: HTRF Human PD-L1/PD-1 Binding Assay IC50 Range
# Procedure, shortened: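 Step 1: compound with PD-L1-His (10 nM final), 15 min. Step 2: PD-1-Ig (20 nM final), 15 min. Step 3: Eu-cryptate anti-Ig (1 nM) plus APC anti-His (20 nM), 30 min equilibration. Signal taken as 665 nm/620 nm ratio.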
# T1 sequence (Q9NZQ7 with tags, fused parts or gaps): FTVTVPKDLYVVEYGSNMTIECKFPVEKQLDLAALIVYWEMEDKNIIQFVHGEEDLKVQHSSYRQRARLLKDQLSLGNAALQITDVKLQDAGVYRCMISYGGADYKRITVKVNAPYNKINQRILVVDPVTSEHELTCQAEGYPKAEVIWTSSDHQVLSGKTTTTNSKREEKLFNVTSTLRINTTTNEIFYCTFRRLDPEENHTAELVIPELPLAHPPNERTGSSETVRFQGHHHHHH
smiles,measurement,value
CCCC[C@H]1C(=O)N(C)[C@@H](CCCC)C(=O)N[C@@H](CCCNC(=N)N)C(=O)N[C@H](C(=O)NCC(N)=O)CSCC(=O)N[C@@H](Cc2ccc(O)cc2)C(=O)N(C)[C@@H](C)C(=O)N[C@@H](CC(=O)O)C(=O)N2CCC[C@H]2C(=O)N[C@@H](Cc2c[nH]cn2)C(=O)N[C@@H](CC(C)C)C(=O)N2C[C@H](O)C[C@H]2C(=O)N[C@@H](Cc2c[nH]c3ccccc23)C(=O)N[C@@H](CCCCN)C(=O)N[C@@H](Cc2c[nH]c3ccccc23)C(=O)N1C [Example 11003] ({CH2CO}-Y[NMeA]DPHL[Hyp]WKW[NMeNle][NMeNle]RCG-NH2; thioether N-14),IC50,1 to 9.9 nM

# Reference: patent US10538555B2, “Macrocyclic inhibitors of the PD-1/PD-L1 and CD80(B7-1)/PD-L1 protein/protein interactions” (BRISTOL-MYERS SQUIBB COMPANY, priority 2014, dated 2020)
